Measured values published in US11162944B2, “Compositions and methods” (priority 2015, dated 2021).
Read-outs that look alike come from different tables or passages of the source. Marks after values point to notes of the source that are not given here.

Columns and labels:
[1] = test system: biomarker (antibody) in serum samples from patients with symptoms of tuberculosis; format: binding, human
wild-type BMDCs = experiment: IL-6 secretion by bone marrow-derived dendritic cells, cytokine-specific ELISA; format: cell-based, mice; conditions: antigens at 100 μg/ml coated on plate, ISO as solvent, FIG. 1
Protocol: The concentrations of cytokines in the cell-free medium from stimulation of bone marrow-derived dendritic cells were determined using standard cytokine-specific ELISA. BMDCs were generated from mice, by flushing out the femurs of mice into complete medium and pipetting vigorously to make a single-cell suspension. The glycolipids were coated to the bottom of 96 micro-well plates (100 μg/ml). BMDCs were added, and after 6 or 48 hours of incubation the supernatants were harvested.
The first experiment was the IL-6 secretion by wild-type BMDCs from mice using compounds B, D, C and H (shown below) as antigens at 100 μg/ml, and isopropyl alcohol (ISO) as a solvent. Commercial trehalose-6,6-dimycolate (TDM), lipopolysaccharides (LPS), and trehalose-6,6-dibehenate (TDB) were used as a controls.

For `CCCCCCCCCCCCCCCCCCCCCCCC[C@@H](C(=O)OC[C@H]1O[C@H](OC)[C@@H](O)[C@@H]1O)[C@H](O)CCCCCCCCCCCCCCCCC[C@@H]1C[C@@H]1CCCCCCCCCCCCCCCC[C@@H](OC)[C@@H](C)CCCCCCCCCCCCCCCCCC` [Antigen B], the “ELISA absorbance at 492 nm” value ([1]; serum sample 1 TB+) was 0.48*, the “ELISA absorbance at 492 nm” value ([1]; serum sample 2 TB+) was 0.54* and the “ELISA absorbance at 492 nm” value ([1]; serum sample 3 TB+) was 1.10*. The “ELISA absorbance at 492 nm” value ([1]; serum sample 4 TB+) was 1.00*, the “ELISA absorbance at 492 nm” value ([1]; serum sample 5 TB+) was 0.45* and the “ELISA absorbance at 492 nm” value ([1]; serum sample 6 TB+) was 0.97*. For the same compound, the “ELISA absorbance at 492 nm” value ([1]; serum sample 7 TB+) was 0.87*, the “ELISA absorbance at 492 nm” value ([1]; serum sample 8 TB+) was 0.97* and the “ELISA absorbance at 492 nm” value ([1]; serum sample 9 TB+) was 0.62*. The “ELISA absorbance at 492 nm” value ([1]; serum sample 10 TB−) was 0.56*, the “ELISA absorbance at 492 nm” value ([1]; serum sample 11 TB−) was 0.64* and the “ELISA absorbance at 492 nm” value ([1]; serum sample 12 TB−) was 0.44. For the same compound, the “ELISA absorbance at 492 nm” value ([1]; serum sample 13 TB−) was 0.56*, the “ELISA absorbance at 492 nm” value ([1]; serum sample 14 TB−) was 0.91* and the “ELISA absorbance at 492 nm” value ([1]; serum sample 15 TB−) was 0.53*. For the same compound, the “ELISA absorbance at 492 nm” value ([1]; serum sample 16 TB−) was 0.52*, the “ELISA absorbance at 492 nm” value ([1]; serum sample 17 TB−) was 0.87* and the “ELISA absorbance at 492 nm” value ([1]; serum sample 18 TB−) was 0.44. The “ELISA absorbance at 492 nm” value ([1]; serum sample 19 TB−) was 0.53*, the “ELISA absorbance at 492 nm” value ([1]; serum sample 20 TB−) was 0.63* and the “ELISA absorbance at 492 nm” value ([1]; serum sample 21 TB−) was 0.42. The “ELISA absorbance at 492 nm” value ([1]; serum sample 22 TB−) was 0.33, the “ELISA absorbance at 492 nm” value ([1]; serum sample 23 TB−) was 0.48* and the “ELISA absorbance at 492 nm” value ([1]; serum sample 24 TB−) was 0.81*. For the same compound, the “ELISA absorbance at 492 nm” value ([1]; serum sample 25 TB−) was 0.23, the “ELISA absorbance at 492 nm” value ([1]; serum sample 26 TB−) was 0.64* and the “ELISA absorbance at 492 nm” value ([1]; serum sample 27 TB−) was 0.60*. For the same compound, the “ELISA absorbance at 492 nm” value ([1]; serum sample 28 TB−) was 0.42, the “ELISA absorbance at 492 nm” value ([1]; serum sample 29 TB−) was 0.39 and the “ELISA absorbance at 492 nm” value ([1]; serum sample 30 TB−) was 0.41. For the same compound, the “ELISA absorbance at 492 nm” value ([1]; serum sample 31 TB−) was 0.37, the “ELISA absorbance at 492 nm” value ([1]; serum sample 32 TB−) was 0.68* and the “ELISA absorbance at 492 nm” value ([1]; serum sample 33 TB−) was 0.36. The “ELISA absorbance at 492 nm” value ([1]; serum sample 34 TB−) was 0.47*, the “ELISA absorbance at 492 nm” value ([1]; serum sample 35 TB−) was 0.38 and the “ELISA absorbance at 492 nm” value ([1]; serum sample 36 TB−) was 0.28. For the same compound, the “ELISA absorbance at 492 nm” value ([1]; serum sample 37 TB−) was 0.40, the “ELISA absorbance at 492 nm” value ([1]; serum sample 38 TB−) was 0.44 and the “ELISA absorbance at 492 nm” value ([1]; serum sample 39 TB−) was 0.31. The “ELISA absorbance at 492 nm” value ([1]; serum sample 40 TB−) was 0.28, the “ELISA absorbance at 492 nm” value ([1]; serum sample 41 TB−) was 0.51* and the “ELISA absorbance at 492 nm” value ([1]; serum sample 42 TB−) was 0.49*. For the same compound, the “ELISA absorbance at 492 nm” value ([1]; serum sample 43 TB−) was 0.28, the “ELISA absorbance at 492 nm” value ([1]; serum sample 44 TB−) was 0.60* and the “ELISA absorbance at 492 nm” value ([1]; serum sample 45 TB−) was 0.34. The “ELISA absorbance at 492 nm” value ([1]; serum sample 46 TB−) was 0.27, the “ELISA absorbance at 492 nm” value ([1]; serum sample 47 TB−) was 0.35 and the “ELISA absorbance at 492 nm” value ([1]; serum sample 48 TB−) was 0.29. The “ELISA absorbance at 492 nm” value ([1]; serum sample 49 TB−) was 0.47*, the “ELISA absorbance at 492 nm” value ([1]; serum sample 50 TB−) was 0.31 and the “ELISA absorbance at 492 nm” value ([1]; serum sample 51 TB−) was 0.22. For the same compound, the “ELISA absorbance at 492 nm” value ([1]; serum sample 52 TB−) was 0.28, the “ELISA absorbance at 492 nm” value ([1]; serum sample 53 TB−) was 0.24 and the “ELISA absorbance at 492 nm” value ([1]; serum sample 54 TB−) was 0.25. The “ELISA absorbance at 492 nm” value ([1]; serum sample 55 TB−) was 0.27, the “ELISA absorbance at 492 nm” value ([1]; serum sample 56 TB−) was 0.42 and the “ELISA absorbance at 492 nm” value ([1]; serum sample 57 TB−) was 0.40. The “ELISA absorbance at 492 nm” value ([1]; serum sample 58 TB−) was 0.32, the “ELISA absorbance at 492 nm” value ([1]; serum sample 59 TB−) was 0.30 and the “ELISA absorbance at 492 nm” value ([1]; serum sample 60 TB−) was 0.36. The “ELISA absorbance at 492 nm” value ([1]; serum sample 61 TB−) was 0.36, the “ELISA absorbance at 492 nm” value ([1]; serum sample 62 TB−) was 0.26 and the “ELISA absorbance at 492 nm” value ([1]; serum sample 63 TB−) was 0.21. For the same compound, the “ELISA absorbance at 492 nm” value ([1]; serum sample 64 TB−) was 2.33* and the “IL-6 secretion by wild-type BMDCs” value (wild-type BMDCs) was “good level of stimulation”.
`CCCCCCCCCCCCCCCCCCCCCC[C@@H](C(=O)OC[C@H]1O[C@H](OC)[C@@H](O)[C@@H]1O)[C@H](O)CCCCCCCCCCCCCCC[C@@H]1C[C@@H]1CCCCCCCCCCCCCCCCCCC(=O)C(C)CCCCCCCCCCCCCCCCCC` (stereo partly shown) [Antigen C] was tested, and the “ELISA absorbance at 492 nm” value ([1]; serum sample 1 TB+) was 0.33*, the “ELISA absorbance at 492 nm” value ([1]; serum sample 2 TB+) was 0.26* and the “ELISA absorbance at 492 nm” value ([1]; serum sample 3 TB+) was 0.44*. For the same compound, the “ELISA absorbance at 492 nm” value ([1]; serum sample 4 TB+) was 0.48*, the “ELISA absorbance at 492 nm” value ([1]; serum sample 5 TB+) was 0.40* and the “ELISA absorbance at 492 nm” value ([1]; serum sample 6 TB+) was 0.39*. The “ELISA absorbance at 492 nm” value ([1]; serum sample 7 TB+) was 1.37*, the “ELISA absorbance at 492 nm” value ([1]; serum sample 8 TB+) was 0.46* and the “ELISA absorbance at 492 nm” value ([1]; serum sample 9 TB+) was 0.35*. The “ELISA absorbance at 492 nm” value ([1]; serum sample 10 TB−) was 0.22, the “ELISA absorbance at 492 nm” value ([1]; serum sample 11 TB−) was 0.20 and the “ELISA absorbance at 492 nm” value ([1]; serum sample 12 TB−) was 0.18. For the same compound, the “ELISA absorbance at 492 nm” value ([1]; serum sample 13 TB−) was 0.24, the “ELISA absorbance at 492 nm” value ([1]; serum sample 14 TB−) was 0.56* and the “ELISA absorbance at 492 nm” value ([1]; serum sample 15 TB−) was 0.22. The “ELISA absorbance at 492 nm” value ([1]; serum sample 16 TB−) was 0.30*, the “ELISA absorbance at 492 nm” value ([1]; serum sample 17 TB−) was 0.57* and the “ELISA absorbance at 492 nm” value ([1]; serum sample 18 TB−) was 0.32*. The “ELISA absorbance at 492 nm” value ([1]; serum sample 19 TB−) was 0.20, the “ELISA absorbance at 492 nm” value ([1]; serum sample 20 TB−) was 0.41* and the “ELISA absorbance at 492 nm” value ([1]; serum sample 21 TB−) was 0.41*. The “ELISA absorbance at 492 nm” value ([1]; serum sample 22 TB−) was 0.31*, the “ELISA absorbance at 492 nm” value ([1]; serum sample 23 TB−) was 0.27* and the “ELISA absorbance at 492 nm” value ([1]; serum sample 24 TB−) was 0.53*. The “ELISA absorbance at 492 nm” value ([1]; serum sample 25 TB−) was 0.24, the “ELISA absorbance at 492 nm” value ([1]; serum sample 26 TB−) was 0.90* and the “ELISA absorbance at 492 nm” value ([1]; serum sample 27 TB−) was 0.46*. For the same compound, the “ELISA absorbance at 492 nm” value ([1]; serum sample 28 TB−) was 0.42*, the “ELISA absorbance at 492 nm” value ([1]; serum sample 29 TB−) was 0.38* and the “ELISA absorbance at 492 nm” value ([1]; serum sample 30 TB−) was 0.39*. The “ELISA absorbance at 492 nm” value ([1]; serum sample 31 TB−) was 0.51*, the “ELISA absorbance at 492 nm” value ([1]; serum sample 32 TB−) was 1.01* and the “ELISA absorbance at 492 nm” value ([1]; serum sample 33 TB−) was 0.33*. For the same compound, the “ELISA absorbance at 492 nm” value ([1]; serum sample 34 TB−) was 0.52*, the “ELISA absorbance at 492 nm” value ([1]; serum sample 35 TB−) was 0.55* and the “ELISA absorbance at 492 nm” value ([1]; serum sample 36 TB−) was 0.25. The “ELISA absorbance at 492 nm” value ([1]; serum sample 37 TB−) was 0.43*, the “ELISA absorbance at 492 nm” value ([1]; serum sample 38 TB−) was 0.43* and the “ELISA absorbance at 492 nm” value ([1]; serum sample 39 TB−) was 0.34*. For the same compound, the “ELISA absorbance at 492 nm” value ([1]; serum sample 40 TB−) was 0.26*, the “ELISA absorbance at 492 nm” value ([1]; serum sample 41 TB−) was 0.44* and the “ELISA absorbance at 492 nm” value ([1]; serum sample 42 TB−) was 0.42*. The “ELISA absorbance at 492 nm” value ([1]; serum sample 43 TB−) was 0.32*, the “ELISA absorbance at 492 nm” value ([1]; serum sample 44 TB−) was 1.32* and the “ELISA absorbance at 492 nm” value ([1]; serum sample 45 TB−) was 0.49*. The “ELISA absorbance at 492 nm” value ([1]; serum sample 46 TB−) was 0.28*, the “ELISA absorbance at 492 nm” value ([1]; serum sample 47 TB−) was 0.56* and the “ELISA absorbance at 492 nm” value ([1]; serum sample 48 TB−) was 0.55*. For the same compound, the “ELISA absorbance at 492 nm” value ([1]; serum sample 49 TB−) was 0.79*, the “ELISA absorbance at 492 nm” value ([1]; serum sample 50 TB−) was 0.38* and the “ELISA absorbance at 492 nm” value ([1]; serum sample 51 TB−) was 0.18. For the same compound, the “ELISA absorbance at 492 nm” value ([1]; serum sample 52 TB−) was 0.32*, the “ELISA absorbance at 492 nm” value ([1]; serum sample 53 TB−) was 0.21 and the “ELISA absorbance at 492 nm” value ([1]; serum sample 54 TB−) was 0.26*. For the same compound, the “ELISA absorbance at 492 nm” value ([1]; serum sample 55 TB−) was 0.31*, the “ELISA absorbance at 492 nm” value ([1]; serum sample 56 TB−) was 0.90* and the “ELISA absorbance at 492 nm” value ([1]; serum sample 57 TB−) was 0.55*. For the same compound, the “ELISA absorbance at 492 nm” value ([1]; serum sample 58 TB−) was 0.44*, the “ELISA absorbance at 492 nm” value ([1]; serum sample 59 TB−) was 0.65* and the “ELISA absorbance at 492 nm” value ([1]; serum sample 60 TB−) was 0.62*. The “ELISA absorbance at 492 nm” value ([1]; serum sample 61 TB−) was 0.76*, the “ELISA absorbance at 492 nm” value ([1]; serum sample 62 TB−) was 0.19 and the “ELISA absorbance at 492 nm” value ([1]; serum sample 63 TB−) was 0.26*. The “ELISA absorbance at 492 nm” value ([1]; serum sample 64 TB−) was 0.37* and the “IL-6 secretion by wild-type BMDCs” value (wild-type BMDCs) was “no significant stimulation”.
